In patent US20240376144A9, “NEUROACTIVE STEROIDS S[…] POSITION 10 WITH A CYCLIC GROUP FOR USE IN THE TREATMENT OF CNS DISORDERS” (Sage Therapeutics, Inc., priority 2018, published 2024):

Target: GABAA receptor ([35S]-TBPS binding, rat brain cortical membranes)
Experiment: Steroid inhibition of [35S]-TBPS binding
Conditions: 3 nM [35S]-TBPS, in the presence of 5 mM GABA
Description: [^35S]-t-Butylbicyclophosphorothionate (TBPS) binding assays using rat brain cortical membranes in the presence of 5 mM GABA has been described (Gee et al., J. Pharmacol. Exp. Ther. 1987, 241, 346-353; Hawkinson et al., Mol. Pharmacol. 1994, 46, 977-985; Lewin, A. H et al., Mol. Pharmacol. 1989, 35, 189-194).
Briefly, cortices are rapidly removed following decapitation of carbon dioxide-anesthetized Sprague-Dawley rats (200-250 g). The cortices are homogenized in 10 volumes of ice-cold 0.32 M sucrose using a glass/teflon homogenizer and centrifuged at 1500×g for 10 min at 4° C. The resultant supernatants are centrifuged at 10,000×g for 20 min at 4° C. to obtain the P2 pellets. The P2 pellets are resuspended in 200 mM NaCl/50 mM Na—K phosphate pH 7.4 buffer and centrifuged at 10,000×g for 10 min at 4° C. This washing procedure is repeated twice and the pellets are resuspended in 10 volumes of buffer. Aliquots ([…]) of the membrane suspensions are incubated with 3 nM [^35S]-TBPS and […] aliquots of test drug dissolved in dimethyl sulfoxide (DMSO) (final 0.5%) in the presence of 5 mM GABA. The incubation is brought to a final volume of 1.0 mL with buffer. Nonspecific binding is determined in the presence of […] and ranged from 15 to 25%. Following a 90 min incubation at room temp, the assays are terminated by filtration through glass fiber filters (Schleicher and Schuell No. 32) using a cell harvester (Brandel) and rinsed three times with ice-cold buffer. Filter bound radioactivity is measured by liquid scintillation spectrometry. Non-linear curve fitting of the overall data for each drug averaged for each concentration is done using Prism (GraphPad). […] The concentration of test compound producing 50% inhibition (IC50) of specific binding and the maximal extent of inhibition (Imax) are determined for the individual experiments with the same model used for the overall data and then the means±SEM.s of the individual experiments are calculated.
Various compounds are or can be screened to determine their potential as modulators of [^35S]-TBPS binding in vitro. These assays are or can be performed in accordance with the above
In Table 2 below, A indicates a TBPS IC50 (μM)<0.1 μM, B indicates a TBPS IC50 (μM) of 0.1 μM to <1.0 μM, C indicates a TBPS IC50 (μM) of 1 μM to <10.0 μM, D means≥10 μM.

In the case of `CCOC[C@@]1(O)CC[C@@]2(C3CC3)[C@H](CC[C@H]3[C@@H]4CC[C@H](C(C)=O)[C@@]4(C)CC[C@@H]32)C1` [Compound 4.12, 1-((3R,5R,8S,9S,10R,13S,14S,17S)-10-cyclopropyl-3-(ethoxymethyl)-3-hydroxy-13-methylhexadecahydro-1H-cyclopenta[a]phenanthren-17-yl)ethan-1-one], the IC50 is reported as < 0.1 µM.
For `CCOC[C@@]1(O)CC[C@@]2(C3CC3)[C@H](CC[C@H]3[C@@H]4CC[C@H](C(=O)Cn5cc(C#N)cn5)[C@@]4(C)CC[C@@H]32)C1` [Compound 5.2, 1-(2-((3R,5R,8S,9S,10R,13S,14S,17S)-10-cyclopropyl-3-(ethoxymethyl)-3-hydroxy-13-methylhexadecahydro-1H-cyclopenta[a]phenanthren-17-yl)-2-oxoethyl)-1H-pyrazole-4-carbonitrile], the IC50 was < 0.1 µM.
`CCOC[C@@]1(O)CC[C@@]2(C3CC3)[C@H](CC[C@H]3[C@@H]4CC[C@H](C(=O)Cn5ccc(C#N)n5)[C@@]4(C)CC[C@@H]32)C1` [Compound 6, 1-(2-((3R,5R,8S,9S,10R,13S,14S,17S)-10-cyclopropyl-3-(ethoxymethyl)-3-hydroxy-13-methylhexadecahydro-1H-cyclopenta[a]phenanthren-17-yl)-2-oxoethyl)-1H-pyrazole-3-carbonitrile] was tested, and the IC50 was < 0.1 µM.
For `COC[C@@]1(O)CC[C@@]2(C3CC3)[C@H](CC[C@H]3[C@@H]4CC[C@H](C(C)=O)[C@@]4(C)CC[C@@H]32)C1` [Compound 7.4, 1-((3R,5R,8S,9S,10R,13S,14S,17S)-10-cyclopropyl-3-hydroxy-3-(methoxymethyl)-13-methylhexadecahydro-1H-cyclopenta[a]phenanthren-17-yl)ethan-1-one], the IC50 was < 0.1 µM.
In the case of `COC[C@@]1(O)CC[C@@]2(C3CC3)[C@H](CC[C@H]3[C@@H]4CC[C@H](C(=O)Cn5cc(C#N)cn5)[C@@]4(C)CC[C@@H]32)C1` [Compound 8.2b, 1-(2-((3R,5R,8S,9S,10R,13S,14S,17S)-10-cyclopropyl-3-hydroxy-3-(methoxymethyl)-13-methylhexadecahydro-1H-cyclopenta[a]phenanthren-17-yl)-2-oxoethyl)-1H-pyrazole-4-carbonitrile], the IC50 is reported as < 0.1 µM.
With `CC(=O)[C@H]1CC[C@H]2[C@@H]3CC[C@@H]4C[C@](C)(O)CC[C@]4(C4CC4)[C@H]3CC[C@]12C` [Compound A9, 1-((3R,5R,8S,9S,10R,13S,14S,17S)-10-cyclopropyl-3-hydroxy-3,13-dimethylhexadecahydro-1H-cyclopenta[a]phenanthren-17-yl)ethan-1-one] the IC50 was < 0.1 µM.
With `C[C@@]1(O)CC[C@@]2(C3CC3)[C@H](CC[C@H]3[C@@H]4CC[C@H](C(=O)Cn5cc(C#N)cn5)[C@@]4(C)CC[C@@H]32)C1` [Compound A11, 1-(2-((3R,5R,8S,9S,10R,13S,14S,17S)-10-cyclopropyl-3-hydroxy-3,13-dimethylhexadecahydro-1H-cyclopenta[a]phenanthren-17-yl)-2-oxoethyl)-1H-pyrazole-4-carbonitrile] the IC50 was < 0.1 µM.
